Assay results taken from patent US20130184222A1, “[…] ACTIVE COMPOSITIONS AND THEIR METHODS OF USE” (AGIOS PHARMACEUTICALS, INC, priority 2010, published 2013).

Each compound was assayed on U87MG cells (assay: Cellular assay: inhibition of 2-HG production in U87MG cells (LC-MS, 48 hours)). Details: Homo sapiens, U-87 MG, 2-HG in media by LC-MS.
Assay type: cell-based
Description: Cells (HT1080 or U87MG) were grown in T125 flasks in DMEM containing 10% FBS, 1× penicillin/streptomycin and 500 ug/mL G418 (present in U87MG cells only). They were harvested by trypsin and seeded into 96 well white bottom plates at a density of 5000 cell/well in 100 ul/well in DMEM with 10% FBS. No cells were placed in columns 1 and 12. Cells were incubated overnight at 37° C. in 5% CO2. The next day test compounds were made up at 2× the final concentration and 100 ul were added to each cell well. The final concentration of DMSO was 0.2% and the DMSO control wells were plated in row G. The plates were then placed in the incubator for 48 hours. At 48 hours, 100 ul of media was removed from each well and analyzed by LC-MS for 2-HG concentrations. The cell plate was placed back in the incubator for another 24 hours. At 72 hours post compound addition, 10 mL/plate of Promega Cell Titer Glo reagent was thawed and mixed. The cell plate was removed from the incubator and allowed to equilibrate to room temperature. Then 100 ul of Promega Cell Titer Glo reagent was added to each well of media. The cell plate was then placed on an orbital shaker for 10 minutes and then allowed to sit at room temperature for 20 minutes. The plate was then read for luminescence with an integration time of 500 ms.

Structure (SMILES) | IC50
Cc1ccccc1C(C(=O)NC1CCCCC1)N(Cc1cccs1)C(=O)CN1Cc2ccccc2C1 (stereo not shown) [Compound 187] | 1 to 5 µM
O=C(NC1CCCCC1)[C@@H](c1ccccc1)N(C(=O)Cc1cccs1)c1cccc(F)c1 [Compound 386] | ≤ 0.25 µM
Cc1ccccc1C(C(=O)NC1CCCCC1)N(C(=O)CN(C)c1ccccc1)c1cccc(F)c1 (stereo not shown) [Compound 161] | 0.25 to 1 µM
Cc1ccccc1C(C(=O)NC1CCCCC1)N(C(=O)Cc1c[nH]c2ccccc12)c1cccc(F)c1 (stereo not shown) [Compound 126] | ≤ 0.25 µM
Cc1ccccc1C(C(=O)NC1CCCCC1)N(C(=O)CSC(=N)N)c1cccc(F)c1 (stereo not shown) [Compound 163] | > 5 µM

Results, then the compound that gave them:

IC50 | Structure (SMILES)
1 to 5 µM | Cc1ccccc1C(C(=O)NC1CCOCC1)N(C(=O)CN(C)c1ccccc1)c1cccc(F)c1 (stereo not shown) [Compound 183]
> 5 µM | Cc1ccccc1C(C(=O)NC1CCCCC1)N(Cc1cccs1)C(=O)OCc1ccccc1 (stereo not shown) [Compound 390]

Each compound was assayed against IDH1 R132H (Homo sapiens, UniProt O75874, R132H) (assay: In vitro assay for IDH1 R132H inhibitors (NADPH/aKG, resazurin detection)). Details: Table 4A; 0.2 μg/ml IDH1 R132H, 50 minutes at room temperature; read-out: IC50 (uM), IDH1 R132H Inhibition.
Chain of IDH1 R132H (O75874 whole entry R132H): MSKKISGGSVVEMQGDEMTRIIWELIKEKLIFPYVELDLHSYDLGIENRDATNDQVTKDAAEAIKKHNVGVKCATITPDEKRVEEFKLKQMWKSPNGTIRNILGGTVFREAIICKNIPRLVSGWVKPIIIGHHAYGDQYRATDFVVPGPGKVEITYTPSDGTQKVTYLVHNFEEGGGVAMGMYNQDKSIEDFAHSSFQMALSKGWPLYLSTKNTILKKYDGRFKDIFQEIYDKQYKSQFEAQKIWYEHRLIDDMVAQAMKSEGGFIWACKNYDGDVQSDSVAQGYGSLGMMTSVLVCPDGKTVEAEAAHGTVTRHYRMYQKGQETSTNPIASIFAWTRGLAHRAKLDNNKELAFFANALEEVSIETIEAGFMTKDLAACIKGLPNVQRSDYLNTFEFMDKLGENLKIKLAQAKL
Assay type: biochemical
Description: Assays were conducted in a volume of 76 μl assay buffer (150 mM NaCl, 10 mM MgCl2, 20 mM Tris pH 7.5, 0.03% bovine serum albumin) as follows in a standard 384-well plate: To 25 ul of substrate mix (8 uM NADPH, 2 mM aKG), 1 μl of test compound was added in DMSO. The plate was centrifuged briefly, and then 25 μl of enzyme mix was added (0.2 μg/ml IDH1 R132H) followed by a brief centrifugation and shake at 100 RPM. The reaction was incubated for 50 minutes at room temperature, then 25 μl of detection mix (30 μM resazurin, […]) was added and the mixture further incubated for 5 minutes at room temperature. The conversion of resazurin to resorufin was detected by fluorescent spectroscopy at Ex544 Em590 c/o 590.
The compounds of Formula I set forth in Table 1 and the compounds set forth in Table 2 were tested in this assay and the results set forth below in Table 4A and 4B.

Structure (SMILES) | IC50
O=C(NC1CCCCC1)C(c1ccccc1)N(C(=O)Cc1cccs1)c1cccc(F)c1 (stereo not shown) [Compound 30] | 0.1 to 1 µM
O=C(NC1CCCCC1)C(C1CCCC1)N(C(=O)Cc1cccs1)c1cccc(F)c1 (stereo not shown) [Compound 61] | 1 to 10 µM
Cc1ccccc1C(C(=O)NC1CCCC1)N(C(=O)Cc1cccs1)c1cccc(F)c1 (stereo not shown) [Compound 8] | ≤ 0.1 µM
Cc1ccccc1C(C(=O)NC1CCCCC1)N(C(=O)c1ccccn1)c1cccc(F)c1 (stereo not shown) [Compound 32] | 1 to 10 µM
O=C(NC1CCCCC1)C(C1CCCCC1)N(C(=O)Cc1cccs1)c1cccc(F)c1 (stereo not shown) [Compound 63] | 1 to 10 µM
Cc1ccccc1N(C(=O)Cc1cccs1)C(C(=O)NC1CCCCC1)c1cccc(F)c1 (stereo not shown) [Compound 13] | 0.1 to 1 µM
O=C(NC1CCCCC1)C(c1ccc(F)cc1)N(C(=O)Cc1cccs1)c1cccc(F)c1 (stereo not shown) [Compound 50] | 0.1 to 1 µM
O=C(NC1CCCCC1)C(c1ccccc1[N+](=O)[O-])N(C(=O)Cc1cccs1)c1cccc(F)c1 (stereo not shown) [Compound 62] | 0.1 to 1 µM
Cc1cccc(C(C(=O)NC2CCCCC2)N(C(=O)Cc2cccs2)c2cccc(F)c2)c1 (stereo not shown) [Compound 89] | 0.1 to 1 µM
O=C(NC1CCCCC1)C(c1ccccc1Cl)N(C(=O)Cc1cccs1)c1ccccc1F (stereo not shown) [Compound 35] | 0.1 to 1 µM
Cc1ccccc1C(C(=O)NC1CCCC1)N(C(=O)Cc1cccs1)c1ccccc1F (stereo not shown) [Compound 46] | 0.1 to 1 µM
O=C(NC1CCCCC1)C(c1cccs1)N(C(=O)Cc1cccs1)c1cccc(F)c1 (stereo not shown) [Compound 94] | 0.1 to 1 µM
CC(C)Cc1ccc(C(C(=O)NC2CCCCC2)N(C(=O)Cc2cccs2)c2cccc(F)c2)cc1 (stereo not shown) [Compound 88] | ≥ 100 µM
O=C(NC1CCCC1)C(c1ccc(C(F)(F)F)cc1)N(C(=O)Cc1cccs1)c1cccc(F)c1 (stereo not shown) [Compound 27] | ≥ 100 µM
O=C(NC1CCCCC1)C(c1ccccc1)N(C(=O)Cc1cccs1)c1ccccc1 (stereo not shown) [Compound 100] | 0.1 to 1 µM
CC(C)(C)NC(=O)C(c1ccccc1)N(C(=O)Cc1cccs1)c1ccccc1 (stereo not shown) [Compound 11] | 1 to 10 µM
O=C(NC1CCCCC1)C(c1ccc(Br)cc1)N(C(=O)Cc1cccs1)c1cccc(F)c1 (stereo not shown) [Compound 68] | ≥ 100 µM
O=C(NC1CCCCC1)C(c1ccc(O)cc1)N(C(=O)Cc1cccs1)c1cccc(F)c1 (stereo not shown) [Compound 92] | 0.1 to 1 µM
O=C(NC1CCCC1)C(c1ccccc1Cl)N(C(=O)Cc1cccs1)c1ccccc1F (stereo not shown) [Compound 2] | 0.1 to 1 µM

Next, values leading:

IC50 | Structure (SMILES)
1 to 10 µM | Cc1ccccc1C(C(=O)NC1CCCC1)N(C(=O)CCl)c1ccccc1F (stereo not shown) [Compound 75]
0.1 to 1 µM | O=C(NC1CCCC1)C(c1ccccc1F)N(C(=O)Cc1cccs1)c1ccccc1F (stereo not shown) [Compound 47]
10 to 100 µM | Cc1ccccc1C(C(=O)NC1CCCCC1)N(C(=O)Cc1cccs1)C(C)C (stereo not shown) [Compound 41]
1 to 10 µM | O=C(NC1CCCCC1)C(c1cccnc1)N(C(=O)Cc1cccs1)c1cccc(F)c1 (stereo not shown) [Compound 90]
≤ 0.1 µM | Cc1cccc(N(C(=O)Cc2cccs2)C(C(=O)NC2CCCCC2)c2ccccc2C)c1 (stereo not shown) [Compound 99]
0.1 to 1 µM | O=C(NC1CCCCC1)C(c1ccccc1Cl)N(C(=O)c1ccccn1)c1ccccc1 (stereo not shown) [Compound 4]
1 to 10 µM | COCOc1ccc(C(C(=O)NC2CCCCC2)N(C(=O)Cc2cccs2)c2cccc(F)c2)cc1 (stereo not shown) [Compound 85]
1 to 10 µM | Cc1ccccc1C(C(=O)NC1CCCCC1)N(C(=O)Cc1cccs1)c1cccc(Cl)c1Cl (stereo not shown) [Compound 97]

Same assay, conditions: Table 4B; 0.2 μg/ml IDH1 R132H, 50 minutes at room temperature; read-out: IC50, IDH1 R132H Inhibition

Structure (SMILES) | IC50
Cc1ccccc1C(C(=O)NC1CCCCC1)N(Cc1cccs1)C(=O)CN1Cc2ccccc2C1 (stereo not shown) [Compound 187] | 0.1 to 1 µM
O=C(NC1CCCCC1)[C@@H](c1ccccc1)N(C(=O)Cc1cccs1)c1cccc(F)c1 [Compound 386] | ≤ 0.1 µM
Cc1ccccc1C(C(=O)NC1CCCCC1)N(C(=O)CN(C)c1ccccc1)c1cccc(F)c1 (stereo not shown) [Compound 161] | ≤ 0.1 µM
Cc1ccccc1C(C(=O)NC1CCCCC1)N(C(=O)Cc1c[nH]c2ccccc12)c1cccc(F)c1 (stereo not shown) [Compound 126] | ≤ 0.1 µM
Cc1ccccc1C(C(=O)NC1CCCCC1)N(C(=O)CSC(=N)N)c1cccc(F)c1 (stereo not shown) [Compound 163] | 0.1 to 1 µM
CC(=O)c1cccc(N(C(=O)Cc2cccs2)C(C(=O)NC2CCCCC2)c2ccccc2C)c1 (stereo not shown) [Compound 131] | 0.1 to 1 µM
Cc1ccccc1C(C(=O)NC1CCCCC1)N(C(=O)CNc1ccccc1)c1cccc(F)c1 (stereo not shown) [Compound 155] | ≤ 0.1 µM
Cc1ccccc1[C@@H](C(=O)NC1CCCCC1)N(C(=O)[C@H]1CCCN1)c1cccc(F)c1 [Compound 376] | 0.1 to 1 µM
Cc1ccccc1C(C(=O)NC1CCCCC1)N(C(=O)CNC1CCCC1)c1cccc(F)c1 (stereo not shown) [Compound 121] | 0.1 to 1 µM
Cc1ccccc1C(C(=O)NC1CCCCC1)N(C(=O)Cc1cccs1)c1ccccc1Cl (stereo not shown) [Compound 147] | 0.1 to 1 µM
Cc1ccc(N(C(=O)Cc2cccs2)C(C(=O)NC2CCCCC2)c2ccccc2C)cc1Cl (stereo not shown) [Compound 117] | 0.1 to 1 µM
Cc1ccccc1[C@@H](C(=O)NC1CCCCC1)N(C(=O)[C@@H]1CCCN1S(C)(=O)=O)c1cccc(F)c1 [Compound 362] | 0.1 to 1 µM
Cc1ccccc1C(C(=O)NC1CCCCC1)N(C(=O)CNC(=O)OC(C)(C)C)c1ccccc1F (stereo not shown) [Compound 352] | 0.1 to 1 µM
Cc1ccccc1C(C(=O)NC1CCCCC1)N(C(=O)Cc1cccs1)c1cccc(N2CCOCC2)c1 (stereo not shown) [Compound 123] | 0.1 to 1 µM
Cc1ccccc1C(C(=O)NC1CCCCC1)N(Cc1cccs1)C(=O)Cn1nnc2ccccc21 (stereo not shown) [Compound 157] | 0.1 to 1 µM
COC(=O)N1CCC[C@@H]1C(=O)N(c1cccc(F)c1)[C@H](C(=O)NC1CCCCC1)c1ccccc1C [Compound 355] | 0.1 to 1 µM
Cc1ccccc1C(C(=O)NC1CCCCC1)N(C(=O)CNC1CCC1)c1cccc(F)c1 (stereo not shown) [Compound 120] | 0.1 to 1 µM
Cc1ccccc1C(C(=O)NC1CCCCC1)N(C(=O)C1COc2ccccc2O1)c1cccc(F)c1 (stereo not shown) [Compound 125] | 0.1 to 1 µM
Cc1ccccc1[C@@H](C(=O)NC1CCCCC1)N(C(=O)[C@@H]1CCCCN1S(C)(=O)=O)c1cccc(F)c1 [Compound 349] | 0.1 to 1 µM
Cc1cccc(C)c1C(C(=O)NC1CCCCC1)N(C(=O)Cc1cccs1)c1cccc(F)c1 (stereo not shown) [Compound 130] | 0.1 to 1 µM
Cc1ccccc1C(C(=O)NC1CCCCC1)N(C(=O)CNCc1ccccc1)c1cccc(F)c1 (stereo not shown) [Compound 152] | 0.1 to 1 µM
Cc1ccccc1C(C(=O)Nc1ccccc1Br)N(C(=O)Cc1cccs1)c1cccc(F)c1 (stereo not shown) [Compound 164] | 0.1 to 1 µM

Now from value to compound:

IC50 | Structure (SMILES)
0.1 to 1 µM | Cc1ccccc1C(C(=O)NC1CCOCC1)N(C(=O)CN(C)c1ccccc1)c1cccc(F)c1 (stereo not shown) [Compound 183]
1 to 10 µM | Cc1ccccc1C(C(=O)NC1CCCCC1)N(Cc1cccs1)C(=O)OCc1ccccc1 (stereo not shown) [Compound 390]
≤ 0.1 µM | CCOC(=O)N1CCCC[C@H]1C(=O)N(c1cccc(F)c1)[C@H](C(=O)NC1CCCCC1)c1ccccc1C [Compound 348]
0.1 to 1 µM | COc1ccccc1C(C(=O)NC1CCCCC1)N(C(=O)Cc1cccs1)c1cccc(F)c1 (stereo not shown) [Compound 116]
0.1 to 1 µM | COC(=O)NCC(=O)N(Cc1cccs1)C(C(=O)NC1CCCCC1)c1ccccc1C (stereo not shown) [Compound 372]
0.1 to 1 µM | Cc1ccccc1C(C(=O)NC1CCCCC1)N(C(=O)Cc1cccs1)C1CCCCC1 (stereo not shown) [Compound 113]
0.1 to 1 µM | Cc1ccccc1C(C(=O)NC1CCCCC1)N(C(=O)Cn1ccnn1)c1cccc(F)c1 (stereo not shown) [Compound 329]
0.1 to 1 µM | Cc1ccccc1[C@@H](C(=O)NC1CCCCC1)N(C(=O)[C@H]1CCCCN1)c1cccc(F)c1 [Compound 337]
≤ 0.1 µM | Cc1ccccc1C(C(=O)NC1CCCCC1)N(C(=O)Cc1cccs1)c1cccc(Cl)c1 (stereo not shown) [Compound 140]
0.1 to 1 µM | Cc1ccccc1C(C(=O)NC1CCCCC1)N(C(=O)CN1CCCCC1)c1cccc(F)c1 (stereo not shown) [Compound 141]
0.1 to 1 µM | Cc1ccccc1C(C(=O)NC1CCCCC1)N(C(=O)Cc1cccs1)c1ccc(F)cc1 (stereo not shown) [Compound 145]
0.1 to 1 µM | COc1cccc(N(C(=O)Cc2cccs2)C(C(=O)NC2CCCCC2)c2ccccc2C)c1 (stereo not shown) [Compound 124]
0.1 to 1 µM | COC(=O)NCC(=O)N(c1ccc(F)cc1)C(C(=O)NC1CCCCC1)c1ccccc1C (stereo not shown) [Compound 353]
0.1 to 1 µM | Cc1ccccc1NC(=O)C(c1ccccc1C)N(C(=O)Cc1cccs1)c1cccc(F)c1 (stereo not shown) [Compound 110]
